Results published in patent publication US20060247223A1, “Non-imidazole alkylamines as histamine H3- receptor ligands and their therapeutic applications” (priority 1998, published 2006).
Structures can show the parent of a compound that is named as a salt.

melting point [°C]	SMILES
130 to 134	CC(=O)c1ccc(OCCCCCN2CCCC2)cc1 (as salt: oxalate) [Example 39, 1-[5-(4-acetylphenoxy)-pentyl]-pyrrolidine]
135 to 136	C[C@@H]1CCC[C@H](C)N1CCCCCOc1ccccc1.Cl
157 to 159	N#Cc1ccc(OCCCN2CCCCC2)cc1F (as salt: hydrochloride) [Example 82, 1-[3-(4-cyano-3-fluorophenoxy)propyl]piperidine]
138 to 140	Cc1ccc(OCCCCCN2CCCC2)cc1 (as salt: oxalate) [Example 21, 1-[5-(4-methylphenoxy)-pentyl]-pyrrolidine]
92 to 94	CCC(=O)c1ccc(OCCCN2CCCCC2C)cc1 (centres unmarked) (as salt: oxalate) [Example 95, 1-[3-(4-propionylphenoxy)propyl]-2-methylpiperidine]
148 to 149	CN(C)CCCCCOc1ccc(C#N)cc1 (as salt: oxalate) [Example 53, N-[5-(4-cyanophenoxy)-pentyl]-dimethylamine]
200 to 202	CC1CCN(CCCOc2ccc(C#N)cc2)CC1 (as salt: hydrochloride) [Example 78, 1-[3-(4-cyanophenoxy)propyl]-4-methylpiperidine]
154 to 155	C[C@@H]1C[C@H](C)CN(CCCCCOc2ccccc2)C1 (as salt: oxalate) [Example 13, 1-(5-phenoxypentyl)-3,5-cis-dimethyl-piperidine]
136 to 138	C[C@H]1C[C@H](C)CN(CCCOc2ccc(C(=O)C3CC3)cc2)C1 (relative stereo) (as salt: oxalate) [Example 101, 1-[3-(4-cyclopropanecarbonylphenoxy)propyl]-trans-3,5 dimethylpiperidine]
133 to 136	CCC(C)c1ccc(OCCCN2CCCCC2)cc1 (centres unmarked) (as salt: oxalate) [Example 112, 1-[3-(4-sec-butylphenoxy)propyl]pipenidine]
130 to 131	O=[N+]([O-])c1cccc(OCCCCCN2CCCC2)c1 (as salt: oxalate) [Example 36, 1-[5-(3-nitrophenoxy)-pentyl]-pyrrolidine]
151 to 153	CC1CCCCN1CCCOc1ccc([N+](=O)[O-])cc1 (centres unmarked) (as salt: oxalate) [Example 85, 1-[3-(4-nitrophenoxy)propyl]-2-methylpiperidine]
131 to 132	Clc1cccc(OCCCCCN2CCCC2)c1 (as salt: oxalate) [Example 25, 1-[5-(3-chlorophenoxy)-pentyl]-pyrrolidine]
177 to 180	CC1CCCCN1CCCOc1ccc(C#N)cc1.Cl (centres unmarked)
163 to 165	C[C@H]1C[C@H](C)CN(CCCOc2ccc(C#N)cc2)C1 (relative stereo) (as salt: oxalate) [Example 100, 1-[3-(4-cyanophenoxy)propyl]-trans-3,5-dimethylpiperidine]
151 to 153	CC1CCCCN1CCCOc1ccc(C#N)cc1 (centres unmarked) (as salt: hydrochloride) [Example 98]
166 to 167	CN(C)CCCOc1ccc(C#N)cc1 (as salt: oxalate) [Example 55, N-[3-(4-cyanophenoxy)-propyl]-dimethylamine]
148 to 150	CC(=O)CCc1ccc(OCCCN2CCCCC2)cc1.Cl
182 to 183	CCC(O)c1ccc(OCCCN2CCC(C)CC2)cc1 (centres unmarked) (as salt: oxalate) [Example 97, 1-{3-[4-(1-hydroxypropyl)phenoxy]propyl}-4-methylpiperidine]

melting point [°C]	SMILES
90 to 91	CCCN(CC)CCCCCOc1ccccc1 (as salt: oxalate) [Example 6, N-ethyl-N-(5-phenoxypentyl)-propylamine]
143 to 144	CC(=O)c1ccc(OCCCN2CC=CCC2)cc1 (as salt: oxalate) [Example 75, 1-[3-(4-acetylphenoxy)-propyl]-1,2,3,6-tetrahydropyridine]
149 to 150	CCOC(=O)C1CCN(CCCCCOc2ccccc2)CC1 (as salt: oxalate) [Example 15, 4-carboethoxy-1-(5-phenoxypentyl)-piperidine]
119 to 120	N#Cc1cccc(OCCCCCN2CCCC2)c1 (as salt: oxalate) [Example 41, 1-[5-(3-cyanophenoxy)-pentyl]-pyrrolidine]
149 to 151	CC(=O)c1ccc(OC[C@H](C)CN2CCCCC2)cc1 (as salt: oxalate) [Example 77, 1-[3-(4-acetylphenoxy)-2-R-methylpropyl]piperidine]
121 to 122	CC(C)C(=O)c1ccc(OCCCN2CCCCC2)cc1 (as salt: oxalate) [Example 72, 1-[3-(4-isobutyrylphenoxy)-propyl]-piperidine]
143 to 145	CCN(CC)CCCCOc1ccc(C#N)cc1 (as salt: oxalate) [Example 56, N-[4-(4-cyanophenoxy)-butyl]-diethylamine]
138 to 139	CCCC(=O)c1ccc(OCCCN2CCCCC2)cc1 (as salt: oxalate) [Example 74, 1-[3-(4-buyrylphenoxy)propyl]piperidine]
122 to 124	CCN(C)CCCCCOc1ccccc1 (as salt: oxalate) [Example 3, N-methyl-N-(5-phenoxypentyl)-ethylamine]
148 to 150	CC(=O)c1ccc(OCC(C)CN2CCCCC2)cc1 (centres unmarked) (as salt: oxalate) [Example 80, 1-[3-(4-acetylphenoxy)-2-S-methylpropyl]piperidine]
160 to 163	c1ccc2c(OCCCCCN3CCCC3)cccc2c1 (as salt: oxalate) [Example 24, 1-[5-(1-naphthyloxy)-pentyl]-pyrrolidine]
148 to 149	c1cc2c(c(OCCCCCN3CCCC3)c1)CCCC2 (as salt: oxalate) [Example 30, 1-{5-[1-(5,6,7,8-tetrahydronaphthyl)-oxy]-pentyl}-pyrrolidine]
114 to 116	c1ccc(SCCCCN2CCCC2)cc1 (as salt: oxalate) [Example 34, 1-(4-phenylthiobutyl)-pyrrolidine]
161 to 163	C[C@@H]1C[C@H](C)CN(CCCOc2ccc(C#N)cc2)C1 (as salt: oxalate) [Example 93, 1-[3-(4-cyanophenoxy)propyl]-cis-3,5-dimethylpiperidine]
189 to 190	c1ccc(-c2ccc(OCCCCCN3CCCC3)cc2)cc1 (as salt: oxalate) [Example 26, 1-[5-(4-phenylphenoxy)-pentyl]-pyrrolidine]
143 to 145	c1ccc(OCCCCCN2CCCCC2)cc1 (as salt: oxalate) [Example 1, 1-(5-phenoxypentyl)-piperidine]
110 to 112	CCN(CC)CCCCCCOc1ccc(C#N)cc1 (as salt: oxalate) [Example 61, N-[6-(4-cyanophenoxy)-hexyl]-diethylamine]
172 to 174	CC1CCCN(CCCOc2ccc([N+](=O)[O-])cc2)C1 (centres unmarked) (as salt: oxalate) [Example 83, 1-[3-(4-nitrophenoxy)propyl]-3-methylpiperidine]

SMILES	melting point [°C]
N#Cc1ccc(OCCCN2CCCCC2)cc1 (as salt: oxalate) [Example 59, 1-[3-(4-cyanophenoxy)propyl]piperidine]	151 to 153
